Experimental data reported in ChEMBL document CHEMBL6120985, “Discovery of a potent PARP1 PROTAC as a chemosensitizer for the treatment of colorectal cancer” (Eur J Med Chem, 2025).
Calls of active or inactive are those of the source. The calls are words filed in the database; no cut-off is given here.

Tests used:
[1] = molecular target: T1, Protein cereblon/Poly [ADP-ribose] polymerase 1 (Homo sapiens, UniProt P09874+Q96SW2); assay: PROTAC activity at CRBN/PARP1 in human HCT-116 cells assessed as degradation of PARP1; assay type: cell-based
Target sequence in this assay (P09874 whole entry): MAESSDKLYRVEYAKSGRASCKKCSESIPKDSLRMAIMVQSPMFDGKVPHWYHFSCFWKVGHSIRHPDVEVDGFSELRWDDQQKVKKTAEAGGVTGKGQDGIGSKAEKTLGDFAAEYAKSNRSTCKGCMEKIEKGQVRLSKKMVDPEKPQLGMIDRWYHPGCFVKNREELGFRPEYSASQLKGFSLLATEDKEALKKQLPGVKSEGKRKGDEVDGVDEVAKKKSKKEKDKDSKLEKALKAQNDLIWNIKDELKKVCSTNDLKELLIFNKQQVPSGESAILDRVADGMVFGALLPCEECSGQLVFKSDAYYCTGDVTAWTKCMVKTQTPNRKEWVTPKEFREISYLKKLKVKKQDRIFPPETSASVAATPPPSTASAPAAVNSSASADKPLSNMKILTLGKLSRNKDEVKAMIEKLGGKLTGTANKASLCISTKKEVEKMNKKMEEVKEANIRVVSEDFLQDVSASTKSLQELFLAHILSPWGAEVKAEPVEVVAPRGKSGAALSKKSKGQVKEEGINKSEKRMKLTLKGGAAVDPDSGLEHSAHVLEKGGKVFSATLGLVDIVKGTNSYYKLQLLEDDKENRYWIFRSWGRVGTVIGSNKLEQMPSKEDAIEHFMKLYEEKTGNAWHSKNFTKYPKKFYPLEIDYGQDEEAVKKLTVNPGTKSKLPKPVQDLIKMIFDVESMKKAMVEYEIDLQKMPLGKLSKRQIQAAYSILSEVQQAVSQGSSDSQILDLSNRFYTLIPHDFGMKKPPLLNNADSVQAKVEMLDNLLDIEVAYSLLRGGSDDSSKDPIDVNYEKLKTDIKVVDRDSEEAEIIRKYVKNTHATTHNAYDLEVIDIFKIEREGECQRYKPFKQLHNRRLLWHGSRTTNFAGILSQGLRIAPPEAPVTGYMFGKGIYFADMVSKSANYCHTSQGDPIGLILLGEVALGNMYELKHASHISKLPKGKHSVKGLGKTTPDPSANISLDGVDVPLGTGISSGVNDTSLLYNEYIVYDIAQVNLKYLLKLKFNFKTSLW
Target sequence in this assay (Q96SW2 whole entry): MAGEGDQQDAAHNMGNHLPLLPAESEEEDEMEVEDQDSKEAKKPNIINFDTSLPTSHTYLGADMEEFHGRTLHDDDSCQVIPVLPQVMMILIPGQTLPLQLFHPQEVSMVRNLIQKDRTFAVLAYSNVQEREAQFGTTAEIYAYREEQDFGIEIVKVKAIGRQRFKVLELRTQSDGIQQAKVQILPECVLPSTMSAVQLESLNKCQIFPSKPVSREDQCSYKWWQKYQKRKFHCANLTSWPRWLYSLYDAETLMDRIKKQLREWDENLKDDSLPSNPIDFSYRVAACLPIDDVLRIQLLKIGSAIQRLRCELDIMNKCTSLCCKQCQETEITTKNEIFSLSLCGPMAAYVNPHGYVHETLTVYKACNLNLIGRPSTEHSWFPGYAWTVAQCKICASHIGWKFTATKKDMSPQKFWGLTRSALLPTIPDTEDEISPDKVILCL

[2] = molecular target: T1, Protein cereblon/Poly [ADP-ribose] polymerase 1; assay: PROTAC activity at CRBN/PARP1 in human HCT-116 cells assessed as maximum degradation of PARP1 relative to control; assay type: cell-based
Target sequence in this assay (P09874 2-1014 limits assumed): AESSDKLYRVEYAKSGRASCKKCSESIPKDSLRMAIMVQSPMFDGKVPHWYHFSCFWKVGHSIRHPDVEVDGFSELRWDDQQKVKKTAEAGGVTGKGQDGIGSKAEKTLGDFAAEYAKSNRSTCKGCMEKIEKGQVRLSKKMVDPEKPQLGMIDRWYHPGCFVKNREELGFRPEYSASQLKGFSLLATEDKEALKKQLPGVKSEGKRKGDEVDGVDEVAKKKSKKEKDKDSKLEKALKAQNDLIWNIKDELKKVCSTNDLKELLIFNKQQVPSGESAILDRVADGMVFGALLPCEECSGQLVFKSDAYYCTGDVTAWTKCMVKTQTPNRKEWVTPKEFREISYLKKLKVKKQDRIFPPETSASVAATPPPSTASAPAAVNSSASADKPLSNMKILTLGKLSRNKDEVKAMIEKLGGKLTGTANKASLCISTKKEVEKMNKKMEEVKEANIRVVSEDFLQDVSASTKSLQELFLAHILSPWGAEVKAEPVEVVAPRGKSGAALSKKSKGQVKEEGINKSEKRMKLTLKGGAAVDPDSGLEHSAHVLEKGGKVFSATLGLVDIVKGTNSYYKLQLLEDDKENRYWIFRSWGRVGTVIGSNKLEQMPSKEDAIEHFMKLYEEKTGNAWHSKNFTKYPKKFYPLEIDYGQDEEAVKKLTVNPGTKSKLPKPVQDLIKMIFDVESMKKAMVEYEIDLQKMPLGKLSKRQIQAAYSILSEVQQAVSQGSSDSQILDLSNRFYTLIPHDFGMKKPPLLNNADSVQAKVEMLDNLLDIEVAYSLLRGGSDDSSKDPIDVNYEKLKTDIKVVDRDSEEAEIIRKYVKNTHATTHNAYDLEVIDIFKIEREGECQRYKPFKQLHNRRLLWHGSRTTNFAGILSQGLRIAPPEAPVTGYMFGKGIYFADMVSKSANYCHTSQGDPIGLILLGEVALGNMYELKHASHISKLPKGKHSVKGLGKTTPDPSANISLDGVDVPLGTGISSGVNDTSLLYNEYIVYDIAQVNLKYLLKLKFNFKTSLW
Target sequence in this assay (Q96SW2 whole entry partner): as the sequence (Q96SW2 whole entry) above

[3] = molecular target: T1, Protein cereblon/Poly [ADP-ribose] polymerase 1; assay: PROTAC activity at CRBN/PARP1 in human HCT-116 cells assessed as decrease in PARP1 level at 1 uM measured after 4 hrs; assay type: cell-based
Target sequence in this assay (P09874 2-1014 limits assumed): as the sequence (P09874 2-1014 limits assumed) above
Target sequence in this assay (Q96SW2 whole entry partner): as the sequence (Q96SW2 whole entry) above

[4] = molecular target: T1, Protein cereblon/Poly [ADP-ribose] polymerase 1; assay: PROTAC activity at CRBN/PARP1 in human RKO cells assessed as degradation of PARP1 at upto 10 uM measured after 24 hrs relative to control; assay type: cell-based
Target sequence in this assay (P09874 2-1014 limits assumed): as the sequence (P09874 2-1014 limits assumed) above
Target sequence in this assay (Q96SW2 whole entry partner): as the sequence (Q96SW2 whole entry) above

[5] = molecular target: T1, Protein cereblon/Poly [ADP-ribose] polymerase 1; assay: PROTAC activity at CRBN/PARP1 in human HCT-116 cells assessed as degradation of PARP1 at 1 uM in presence of MG132; assay type: cell-based
Target sequence in this assay (P09874 2-1014 limits assumed): as the sequence (P09874 2-1014 limits assumed) above
Target sequence in this assay (Q96SW2 whole entry partner): as the sequence (Q96SW2 whole entry) above

[6] = system: LoVo; assay: Cytotoxicity against human LoVo cells assessed as inhibition of cell growth measured after 72 hrs by CCK-8 method; assay type: functional, cell-based
[7] = Potency index, ratio of SK-575 IC50 to test compound IC50 for cytotoxicity against human LoVo cells assessed as inhibition of cell growth measured after 72 hrs by CCK-8 method; assay type: functional
[8] = Cytotoxicity against human BEAS-2B cells assessed as inhibition of cell growth measured after 72 hrs by CCK-8 method; assay type: toxicity, cell-based
[9] = system: HCT-116; assay: Antagonistic antiproliferative activity against human HCT-116 cells assessed as combination index at 1 uM measured after 72 hrs in presence of 0.625 nM of SN-38 by CCK-8 method; assay type: functional
[10] = system: HCT-116; assay: Synergistic antiproliferative activity against human HCT-116 cells assessed as combination index at 0.5 uM measured after 72 hrs in presence of 0.625 nM of SN-38 by CCK-8 method; assay type: functional
[11] = system: HCT-116; assay: Synergistic antiproliferative activity against human HCT-116 cells assessed as combination index at 0.5 uM measured after 72 hrs in presence of 1.25 nM of SN-38 by CCK-8 method; assay type: functional
[12] = system: HCT-116; assay: Synergistic antiproliferative activity against human HCT-116 cells assessed as combination index at 0.5 uM measured after 72 hrs in presence of 2.5 nM of SN-38 by CCK-8 method; assay type: functional
[13] = system: HCT-116; assay: Synergistic antiproliferative activity against human HCT-116 cells assessed as combination index at 0.5 uM measured after 72 hrs in presence of 10 nM of SN-38 by CCK-8 method; assay type: functional
[14] = system: HCT-116; assay: Synergistic antiproliferative activity against human HCT-116 cells assessed as combination index at 1 uM measured after 72 hrs in presence of 5 nM of SN-38 by CCK-8 method; assay type: functional
[15] = system: HCT-116; assay: Synergistic antiproliferative activity against human HCT-116 cells assessed as combination index at 1 uM measured after 72 hrs in presence of 10 nM of SN-38 by CCK-8 method; assay type: functional
[16] = system: HCT-116; assay: Antagonistic antiproliferative activity against human HCT-116 cells assessed as combination index at 2 uM measured after 72 hrs in presence of 0.625 nM of SN-38 by CCK-8 method; assay type: functional
[17] = system: HCT-116; assay: Antagonistic antiproliferative activity against human HCT-116 cells assessed as combination index at 2 uM measured after 72 hrs in presence of 1.25 nM of SN-38 by CCK-8 method; assay type: functional
[18] = system: HCT-116; assay: Synergistic antiproliferative activity against human HCT-116 cells assessed as combination index at 2 uM measured after 72 hrs in presence of 5 nM of SN-38 by CCK-8 method; assay type: functional
[19] = system: HCT-116; assay: Synergistic antiproliferative activity against human HCT-116 cells assessed as combination index at 4 uM measured after 72 hrs in presence of 5 nM of SN-38 by CCK-8 method; assay type: functional
[20] = system: HCT-116; assay: Induction of apoptosis in human HCT-116 cells assessed as viable cells at 1 uM measured after 72 hrs in presence of SN-38 by annexin V/FITC and PI staining based flow cytometry analysis (reference value: 89.6%); assay type: functional; conditions: read-out: Activity
[21] = system: HCT-116; assay: Induction of apoptosis in human HCT-116 cells assessed as early apoptotic cells at 1 uM measured after 72 hrs by annexin V/FITC and PI staining based flow cytometry analysis (reference value: 3.43%); assay type: functional
[22] = system: HCT-116; assay: Induction of apoptosis in human HCT-116 cells assessed as early apoptotic cells at 1 uM measured after 72 hrs in presence of SN-38 by annexin V/FITC and PI staining based flow cytometry analysis (reference value: 3.43%); assay type: functional
[23] = system: HCT-116; assay: Induction of apoptosis in human HCT-116 cells assessed as late apoptotic cells at 1 uM measured after 72 hrs by annexin V/FITC and PI staining based flow cytometry analysis (reference value: 6.80%); assay type: functional
[24] = system: HCT-116; assay: Induction of apoptosis in human HCT-116 cells assessed as late apoptotic cells at 1 uM measured after 72 hrs in presence of SN-38 by annexin V/FITC and PI staining based flow cytometry analysis (reference value: 6.80%); assay type: functional
[25] = system: HCT-116; assay: Induction of apoptosis in human HCT-116 cells assessed as necrotic cells at 1 uM measured after 72 hrs by annexin V/FITC and PI staining based flow cytometry analysis (reference value: 0.16%); assay type: functional
[26] = system: HCT-116; assay: Induction of apoptosis in human HCT-116 cells assessed as necrotic cells at 1 uM measured after 72 hrs in presence of SN-38 by annexin V/FITC and PI staining based flow cytometry analysis (reference value: 0.16%); assay type: functional
[27] = system: HCT-116; assay: Induction of cell cycle arrest in human HCT-116 cells assessed as accumulation of cells at G2/M phase at 1 uM measured after 72 hrs in presence of SN-38 by PI staining based flow cytometry analysis; assay type: functional
[28] = system: HCT-116; assay: Downregulation of HSPA2 level in human HCT-116 cells at 1 uM in presence of SN-38 by KEGG enrichment analysis; assay type: functional, cell-based
[29] = system: HCT-116; assay: Upregulation of ATP5PD level in human HCT-116 cells at 1 uM in presence of SN-38 by KEGG enrichment analysis; assay type: functional, cell-based
[30] = system: HCT-116; assay: Upregulation of HMCN1 level in human HCT-116 cells at 1 uM in presence of SN-38 by KEGG enrichment analysis; assay type: functional, cell-based
[31] = system: HCT-116; assay: Effect on BRCA protein level in human HCT-116 cells at 1 uM in presence of SN-38 by Western blot analysis; assay type: functional, cell-based
[32] = system: HCT-116; assay: Effect on Rad51 protein level in human HCT-116 cells at 1 uM in presence of SN-38 by Western blot analysis; assay type: functional, cell-based
[33] = system: HCT-116; assay: Effect on Ku70 protein level in human HCT-116 cells at 1 uM in presence of SN-38 by Western blot analysis; assay type: functional, cell-based
[34] = system: HCT-116; assay: Downregulation of […] level in human HCT-116 cells at 1 uM in presence of SN-38 by Western blot analysis; assay type: functional, cell-based
[35] = system: HCT-116; assay: Upregulation of CHK1 level in human HCT-116 cells at 1 uM in presence of SN-38 by Western blot analysis; assay type: functional, cell-based

## NC(=O)c1cccc2cn(-c3ccc([C@@H]4CCCN(CCC5CCN(CCC6CCN(CC7CCN(c8ccc9c(c8)C(=O)N(C8CCC(=O)NC8=O)C9=O)CC7)CC6)CC5)C4)cc3)nc12 (stereo not given in full)
[1]
  DC50: 30 nM
[2]
  Emax: 86.2%
[3]
  Activity: Active
[4]
  Emax: 95.9%
[5]
  Activity: inactive
[6]
  IC50: 2840 nM
[7]
  Ratio IC50: <3.5
[8]
  IC50 at 72 h: 8.29 µM
[9]
  CI: 1.003
[10]
  CI: 0.967
[11]
  CI: 0.932
[12]
  CI: 0.879
[13]
  CI: 0.753
[14]
  CI: 0.698
[15]
  CI: 0.698
[16]
  CI: 1.241
[17]
  CI: 1.092
[18]
  CI: 0.752
[19]
  CI: 0.457
[20]
  viability at 1 µM: 58.2%
[21]
  Activity: 4.03%
[22]
  Activity: 11.9%
[23]
  Activity: 10.4%
[24]
  Activity: 19.7%
[25]
  Activity: 2.01%
[26]
  Activity: 10.2%
[27]
  Activity: Active
[28]
  Activity: Active
[29]
  Activity: Active
[30]
  Activity: Active
[31]
  Activity: inactive
[32]
  Activity: inactive
[33]
  Activity: inactive
[34]
  Activity: Active
[35]
  Activity: Active
